According to patent US6656500B2, “Capsule system” (Allergan, Inc., priority 1999, dated 2003):

Columns and labels:
[1] = women of child-bearing age who just get off treatment; cited from earlier work
[2] = Amount of Tazarotene solubilized in caprylic/capric triglyceride per capsule; format: physicochemical; conditions: caprylic/capric triglyceride vehicle
Description: Importantly, the retinoid agent, Tazarotene, is fully dissolved in the vehicle in a conventional manner before incorporation into the capsule shell. The total dissolution of Tazarotene in the vehicle facilitates absorption from the gastro-intestinal tract by eliminating the need for drug dissolution prior to absorption.

[3] = Solubility of Tazarotene in water; format: physicochemical
Description: The invention is directed to capsule systems for the delivery of active agents, particularly retinoids. In a preferred example, it is known that the compound Tazarotene, known chemically as ethyl 6-[(4,4-dimethylthiochroman-6-yl)ethynyl]-nicotinate, having the molecular formula C21H21NO2S, is active in the treatment of acne and psoriasis. […] However, the solubility of Tazarotene in water is negligible.

Row | SMILES | typical precautionary pregnancy wash-out period [1] | amount effectively solubilized in a capsule [2] | solubility in water [3]
1 | COc1cc(C)c(/C=C/C(C)=C/C=C/C(C)=C/C(=O)O)c(C)c1C [acitretin] | three years |  | 
2 | CCOC(=O)c1ccc(C#Cc2ccc3c(c2)C(C)(C)CCS3)nc1 [Tazarotene, ethyl 6-[(4,4-dimethylthiochroman-6-yl)ethynyl]-nicotinate] |  | up to 34 mg | negligible
3 | CC1=C(/C=C/C(C)=C/C=C/C(C)=C\C(=O)O)C(C)(C)CCC1 [isotretinoin] | one month |  | 
